# Data published in article PMC3210610, “Studies on Synthesis and Structure-Activity Relationship (SAR) of Derivatives of a New Natural Product from Marine Fungi as Inhibitors of Influenza Virus Neuraminidase” (Marine Drugs, 2011).
# Assays:
# [1] = target: neuraminidase (NA) of A/GuangdongSB/01/2009 (H1N1) (Influenza A virus (A/Managua/5248.03/2009(H1N1)), UniProt E0V7D1); details: 0.15 mM 4-MUNANA, MES pH 6.5, 4 mM CaCl2, 37 °C, 1 h preincubation; Figure 2 legend says chemiluminescence assay
# [2] = target: neuraminidase (NA) of A/Guangdong/05/2009 (H1N1) (Influenza A virus (A/Managua/5248.03/2009(H1N1)), UniProt E0V7D1); details: 0.15 mM 4-MUNANA, MES pH 6.5, 4 mM CaCl2, 37 °C, 1 h preincubation; Figure 2 legend says chemiluminescence assay
smiles,measurement,setting,value
"C=CCOc1cc(C=O)ccc1O [compound 15, 3-(allyloxy)-4-hydroxybenzaldehyde]",IC50,[1],27 µM
same,IC50,[2],25.1 µM
